How the values were obtained:
[1] = target: T1, Orotate phosphoribosyltransferase (Plasmodium falciparum (isolate 3D7), UniProt Q8I3Y0); test: Inhibition Assay; details: pH 8; 25 °C
T1 sequence (Q8I3Y0 whole entry): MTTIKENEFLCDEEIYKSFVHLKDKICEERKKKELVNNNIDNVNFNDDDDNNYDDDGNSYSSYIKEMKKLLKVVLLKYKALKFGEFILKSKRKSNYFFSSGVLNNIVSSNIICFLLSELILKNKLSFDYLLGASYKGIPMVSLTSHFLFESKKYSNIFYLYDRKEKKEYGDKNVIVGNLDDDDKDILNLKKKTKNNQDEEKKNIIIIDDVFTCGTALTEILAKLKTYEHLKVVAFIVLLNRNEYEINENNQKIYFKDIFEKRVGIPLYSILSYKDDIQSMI
Procedure: (§1) In all cases, the inhibitor concentration was at least 10 times the enzyme concentration. Reaction rates were monitored through the absorbance increase at 295 nm to give an extinction coefficient of 3.67 mM-1 cm-1 [Abdo et al., Org. Lett., 12:2982-2985].

[2] = target: T2, Uridine 5'-monophosphate synthase (Homo sapiens, UniProt P11172); test: Inhibition Assay; details: pH 8; 25 °C
T2 sequence (P11172 whole entry): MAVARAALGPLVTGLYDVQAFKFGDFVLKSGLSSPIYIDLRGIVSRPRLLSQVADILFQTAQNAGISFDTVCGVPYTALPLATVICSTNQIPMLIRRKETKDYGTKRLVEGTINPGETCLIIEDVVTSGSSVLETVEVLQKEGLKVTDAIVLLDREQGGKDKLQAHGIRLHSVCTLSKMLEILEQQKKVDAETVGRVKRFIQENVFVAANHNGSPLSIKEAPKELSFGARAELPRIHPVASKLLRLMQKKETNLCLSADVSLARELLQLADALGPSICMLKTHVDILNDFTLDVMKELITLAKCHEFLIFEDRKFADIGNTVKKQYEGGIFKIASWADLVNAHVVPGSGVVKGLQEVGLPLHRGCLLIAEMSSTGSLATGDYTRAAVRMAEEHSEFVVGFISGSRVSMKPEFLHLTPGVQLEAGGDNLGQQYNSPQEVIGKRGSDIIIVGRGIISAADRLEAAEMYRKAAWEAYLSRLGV
Procedure: as §1

SMILES	Ki [1] [nM]	Ki [2] [nM]
O=[N+]([O-])c1ccc(O[C@@H]2O[C@H](CO)C(O)C2O)cc1 (stereo not given in full) [OPRT inhibitor, 1]	190	120
O=[N+]([O-])c1ccc(O[C@@H]2O[C@H](COP(=O)(O)O)C(O)C2O)cc1 (stereo not given in full) [OPRT inhibitor, 2]	40	41
O=C(O)c1ccncc1[C@@H]1N[C@H](COP(=O)(O)O)C(O)C1O (stereo not given in full) [OPRT inhibitor, 12]	15500	4300
O=C(O)c1[nH]c(=O)[nH]c(=O)c1CN1CCCC1 [OPRT inhibitor, 13]	470	250
O=[N+]([O-])c1ccc([C@@H]2N[C@H](CO)C(O)C2O)cc1 (stereo not given in full) [OPRT inhibitor, 16]	480	230
O=[N+]([O-])c1ccc(CN2CC(O)[C@@H](CO)C2)cc1 (stereo not given in full) [OPRT inhibitor, 17]	750	200
O=[N+]([O-])c1ccc(CCN2CC(O)[C@@H](CO)C2)cc1 (stereo not given in full) [OPRT inhibitor, 18]	570	230
O=[N+]([O-])c1ccc(CNC(CO)CO)cc1 [OPRT inhibitor, 19]	500	150
O=[N+]([O-])c1ccc(CCNC(CO)CO)cc1 [OPRT inhibitor, 20]	510	120

Second part, the molecule after the results:

Ki [1] [nM]	Ki [2] [nM]	SMILES
350	530	O=c1[nH]c(=O)n(C[C@@H]2N[C@H](CO)C(O)C2O)cc1Br (stereo not given in full) [OPRT inhibitor, 3]
370	200	O=c1[nH]c(=O)n(C[C@@H]2N[C@H](COP(=O)(O)O)C(O)C2O)cc1Br (stereo not given in full) [OPRT inhibitor, 4]
300	360	N#Cc1cc(=O)[nH]c(=O)n1C[C@@H]1N[C@H](CO)C(O)C1O (stereo not given in full) [OPRT inhibitor, 5]
350	140	N#Cc1cc(=O)[nH]c(=O)n1C[C@@H]1N[C@H](COP(=O)(O)O)C(O)C1O (stereo not given in full) [OPRT inhibitor, 6]
270	110	O=C1c2cc(=O)[nH]c(=O)n2C[C@H]2C(O)C(O)[C@@H](CO)N12 (stereo not given in full) [OPRT inhibitor, 7]
170	90	O=C1c2cc(=O)[nH]c(=O)n2C[C@H]2C(O)C(O)[C@@H](COP(=O)(O)O)N12 (stereo not given in full) [OPRT inhibitor, 8]
270	80	O=c1[nH]c(=O)n(CCN2CC(O)C(O)[C@H]2CO)cc1Br (stereo not given in full) [OPRT inhibitor, 9]
690	290	O=C(O)c1cc(=O)[nH]c(=O)n1CCN1CC(O)C(O)[C@H]1CO (stereo not given in full) [OPRT inhibitor, 10]
1300	520	O=c1[nH]c(=O)n(CCN2CC(O)[C@@H](CO)C2)cc1Br (stereo not given in full) [OPRT inhibitor, 11]
220	83	O=C(O)c1[nH]c(=O)[nH]c(=O)c1CN1CC(O)[C@@H](CO)C1 (stereo not given in full) [OPRT inhibitor, 14]
500	240	O=C(O)c1[nH]c(=O)[nH]c(=O)c1CN1CC(O)[C@@H](COP(=O)(O)O)C1 (stereo not given in full) [OPRT inhibitor, 15]

From BindingDB's records for doi:10.1074/jbc.M113.521955 (Albert Einstein College of Medicine, 2013)
